The results in this text go back to US11422132B2, “Peptides and uses thereof for diagnosing and treating myasthenia gravis” (The Regents of the University of California, priority 2016, dated 2022).

Assay [1] deals with mAb 35. Briefly: Western blot of peptide-IChBD fusion proteins probed with mAb 35. Type of assay: binding, rat. Particulars: Western blot. The method, then:
(§1) Chitin beads adsorbed with peptide-IChBD fusion proteins were run on an SDS-PAGE gel and transferred to a nitrocellulose membrane and assayed with the four mAbs.
(§2) Chitin beads adsorbed with peptide-IChBD fusion proteins were run on an SDS-PAGE gel and transferred to a nitrocellulose membrane and assayed with the five mAbs.
(§3) To explore the effects of individual amino acid substitutions between the Torpedo and the human AChR MIR mimics, eight peptides were prepared, each with an amino acid substituted from the human sequence into the Torpedo sequence. The single amino acid substitutions in the Torpedo MIR were: N10K (SEQ ID NO:11), L12F (SEQ ID NO:12), R66K (SEQ ID NO:13), A70D (SEQ ID NO:14), I75V (SEQ ID NO:15), R79H (SEQ ID NO:16), D111Q (SEQ ID NO:17), and K115H (SEQ ID NO:18).
(In general: Immunoblotting shows a protein as a band on a membrane.)

The subject of assay [2] is mAb 35. The description is as above. Type of assay: binding, rat. Also noted: key to mAb 35, fold-change in binding relative to Torpedo 39MIR: ‘—’ denotes no binding. The note with it: for mAb 35 binding compared to the Torpedo 39 MIR: human 39MIR triple and quadruple mutants, FIG. 7.
The test system of assay [3] is mAb 132A. Briefly: Western blot of peptide-IChBD fusion proteins probed with mAb 132A. Type of assay: binding, rat. On the set-up: key to mAb 132A, fold-change in binding relative to Torpedo 39MIR: ‘—’ denotes no binding. Particulars: for mAb 132A binding compared to the Torpedo 39 MIR: human 39MIR triple and quadruple mutants, FIG. 7.
Assay [4] deals with mAb 198. Nature of the assay: Western blot of peptide-IChBD fusion proteins probed with mAb 198. Type of assay: binding, rat. The note with it: for mAb 198 binding, result in words: Western blot; for mAb 198 binding compared to its binding to the human 39MIR: human 39MIR mutants, relative to human 39MIR.
Source text: as §1, §2
The Torpedo (SEQ ID NO:9) and human (SEQ ID NO:8) 39MIRs were made by joining the α(1-12), α(65-79), and α(110-115) segments of their respective a subunits with GS linkers. These two MIR mimics were expressed in E. coli as fusion proteins with an IChBD tag to permit peptide collection on chitin beads. These two peptides differ from each other by eight amino acids (FIG. 2). Both mimics were probed with mAb 198. mAb 198, which was derived from rats that had been immunized with human muscle AChR, is a MIR-directed mAb that binds mammalian as well as Torpedo MIR (13,21). It was also able to passively transfer EAMG to rats and binds to both native assembled AChR and to α-subunit fragments in Western blots (22,23). mAb 198 binds to the Torpedo and human MIR peptide mimics in Western blots (FIG. 3). However, mAb 198 binds to the Torpedo mimic about 50 times more strongly than to the human MIR mimic (FIG. 3).
as §3

For assay [5], the system named is mAb 132A. Nature of the assay: Western blot of peptide-IChBD fusion proteins probed with mAb 132A. The note with it: Western blot. Type of assay: binding, rat. As for the experimental part:
as §1, §2, §3

For assay [6], the system named is antibodies in human MG serum samples. Nature of the assay: Dot blot of His-tagged peptides against human MG serum samples. Type of assay: binding. The text has this:
Sample were obtained from either normal subjects (i.e., without a diagnosis of myasthenia gravis (MG)) or subjects diagnosed with MG. Samples were contacted with the Torpedo 39MIR peptide (SEQ ID NO:9), the human 39MIR peptide (SEQ ID NO:8), the K10N/V75I/[…] human 39MIR triple mutant (SEQ ID NO:26), or the K10N/D70A/V75I/Q111D human 39MIR quadruple mutant (SEQ ID NO:27).
His-tagged variants of the Torpedo 39MIR, human 39MIR, […] triple mutant, and K10N/D70A/V75I/Q111D quadruple mutant peptides were expressed and probed for binding to antibodies in human MG serum samples. The peptides were dot-blotted onto a membrane and probed for binding to antibodies in our human MG serum library. […] None of the His-tagged peptides bound any antibodies in normal human serum samples (FIG. 11). Although the triple mutant peptide (SEQ ID NO:26) bound better overall to mAb 35, mAb 132A, and mAb 198, the quadruple mutant peptide (SEQ ID NO:27) was better for binding antibodies in MG sera.

Setting [7] is: Table 2, Western blot of FIG. 7, human 39MIR multiple mutants.
The mark [8] stands for this setting: Table 3, single-substitution human 39MIR mutants.

Entries after “also recorded” stand apart in the source; their conditions may differ.

In the case of “SEHETRLVAKLFGGGSLKWNPDDYGGVKKIHGSLQYTGH (synthetic main immunogenic region (MIR) peptide) [Human 39MIR]”, the “mAb 35 binding, result in words” value in assay [1] is listed as “does not bind; also recorded: not recognized; also recorded: did not bind”. For the same sequence, the “mAb 35, fold-change in binding relative to Torpedo 39MIR” value in assay [2] (setting [7]) and in assay [2] (setting [8]) was “—” throughout. Also, the “mAb 132A, fold-change in binding relative to Torpedo 39MIR” value in assay [3] (setting [7]) and in assay [3] (setting [8]) was “—” each time. The results for the “mAb 198, fold-change in binding relative to Torpedo 39MIR” value in assay [4] (setting [7]) and in assay [4] (setting [8]) were 0.09 fold-change and 0.02 fold-change, respectively. Further, the “mAb 198 binding, result in words” value in assay [4] is listed as “binds; also recorded: recognized; also recorded: able to bind”. Moreover, in assay [5], the “mAb 132A binding, result in words” value was “does not bind; also recorded: not recognized; also recorded: did not bind”. Further, in assay [6] (FIG. 11), the “binding to antibodies in human MG serum samples” value (“binding to antibodies” for short) is reported as “did not bind any antibodies”.
Consider “SEHETRLVANLFGGGSLKWNPADYGGIKKIHGSLDYTGH (synthetic main immunogenic region (MIR) peptide) [K10N/D70A/V75I/Q111D, Human 39MIR quadruple mutant (K10N/D70A/V75I/Q111D)]”, for which the “mAb 35, fold-change in binding relative to Torpedo 39MIR” value in assay [2] (setting [7]) is 1.70 fold-change. The “mAb 35 binding compared to the Torpedo 39 MIR” value in assay [2] is listed as 1.70 ×. For the same sequence, the “mAb 132A, fold-change in binding relative to Torpedo 39MIR” value in assay [3] (setting [7]) is given as 0.99 fold-change. Further, the “mAb 132A binding compared to the Torpedo 39 MIR” value in assay [3] came to 0.99 ×. Also, the “mAb 198, fold-change in binding relative to Torpedo 39MIR” value in assay [4] (setting [7]) was found to be 0.99 fold-change. The “mAb 198 binding compared to its binding to the human 39MIR” value in assay [4] was found to be 11 ×. The “binding to antibodies” value in assay [6] (FIG. 11) is “bound antibodies in the human sera”; in assay [6] (FIG. 11, listed as SEQ ID NO:27), “a fraction of Abs in MG patient sera”; in assay [6] (FIG. 11, listed as quadruple mutant peptide) it was “able to bind antibodies in all of our human MG serum samples”.
For “SEHETRLVANLFGGGSLKWNPDDYGGIKKIHGSLDYTGH (synthetic main immunogenic region (MIR) peptide) [K10N/V75I/Q111D, Human 39MIR triple mutant (K10N/V75I/Q111D)]”, the “mAb 35 binding, result in words” value in assay [1] is listed as “improved binding”. The “mAb 35, fold-change in binding relative to Torpedo 39MIR” value in assay [2] (setting [7]) came out at 2.97 fold-change. Further, in assay [2], the “mAb 35 binding compared to the Torpedo 39 MIR” value worked out at 2.97 ×. In addition, the “mAb 132A, fold-change in binding relative to Torpedo 39MIR” value in assay [3] (setting [7]) was found to be 2.46 fold-change. Also, in assay [3], the “mAb 132A binding compared to the Torpedo 39 MIR” value turned out to be 2.46 ×. In assay [4] (setting [7]), the “mAb 198, fold-change in binding relative to Torpedo 39MIR” value turned out to be 2.52 fold-change. Also, in assay [4], the “mAb 198 binding, result in words” value was “improved binding” and the “mAb 198 binding compared to its binding to the human 39MIR” value is 28 ×. Further, the “mAb 198 binding compared to the Torpedo 39 MIR” value in assay [4] (human 39MIR triple mutant, FIG. 7) is listed as 2.52 ×. The “binding to antibodies” value in assay [6] (FIG. 11) is given as “only bound antibodies in one MG serum sample”. In assay [6] (FIG. 11, listed as K10N/N75I/Q111D), the “binding to antibodies” value is given as “bound antibodies in the human sera”.
